In US20220227728A1, “Microtubule-associated protein Tau imaging compounds for Alzheimer's disease and precursors thereof” (priority 2021, published 2022):
Entries after “also recorded” stand apart in the source; their conditions may differ.

Tested on: microtubule-associated protein Tau
Assay: nano PET/CT imaging in P301L gene transgenic mice and control mice
Format: in vivo
Details: 0.46 mCi by tail vein, 30 minutes of distribution
Source text: FIG. 3 is an image of the microtubule-associated protein Tau compound 29 of the present invention in P301L gene transgenic mice and control mice using positron emission tomography (nano PET/CT) analysis, in which P301L gene transgenic mice (source: United States JACKSON Research Center) refers to the mutation of proline to leucine at codon 301 of the encoded microtubule-associated protein Tau. These types of mutations can accelerate the formation of neurofibrillary tangles. P301L gene transgenic mice and control mice were injected through the tail vein with 0.46 millicuries (mCi) of compound 29 of the present invention, and after 30 minutes of distribution, radiography was performed on the mice using a positron emission tomography scanner (BIOSCAN).
0.46 mCi of compound 29 was injected into P301L gene transgenic mice and control mice, and after 30 minutes of distribution nano-PET/CT was used for contrast imaging.

Structure (SMILES): CC([18F])COc1ccc2cc(-n3cc4ccccc4c3)ncc2c1 (stereo not shown) [compound 29, [18F] 7-(2-fluoropropoxy)-3-(2H-isoindol-2-yl) isoquinoline]
- drug accumulation (absorption) in the brain of P301L gene transgenic mice versus control mice: significantly higher than that of the control mice; also recorded: significantly greater than that of control mice
